Several values for one entry are separate records, joined by “and”; a condition that tells them apart may be missing. Equal values may be shown once. Toxic doses and inconclusive results are not listed.
System: B6C3F1 mice, B16 melanoma ip, median survival T/C
Experiment: NCI In Vivo Anticancer Drug Screen. Data for tumor model B16 Melanoma (intraperitoneal) in B6C3F1 mice
Conditions: endpoint: median survival time, higher = longer survival
How it was run: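 Readout: survival or tumor size in treated mice relative to vehicle controls (T/C). Model uses transplantable tumors grown in mice.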

[1] = dose: 12.5 mg/kg/injection, schedule: Q01DX009 (ip), vehicle: saline with Tween-80
[2] = dose: 25.0 mg/kg/injection, schedule: Q01DX009 (ip), vehicle: saline with Tween-80
[3] = dose: 50.0 mg/kg/injection, schedule: Q01DX009 (ip), vehicle: saline with Tween-80
[4] = dose: 100.0 mg/kg/injection, schedule: Q01DX009 (ip), vehicle: saline with Tween-80
[5] = dose: 200.0 mg/kg/injection, schedule: Q01DX009 (ip), vehicle: saline with Tween-80
[6] = dose: 3.12 mg/kg/injection, schedule: Q01DX009 (ip), vehicle: Klucel (hydroxypropylcellulose) (HPC)
[7] = dose: 6.25 mg/kg/injection, schedule: Q01DX009 (ip), vehicle: Klucel (hydroxypropylcellulose) (HPC)
[8] = dose: 6.25 mg/kg/injection, schedule: Q01DX009 (ip), vehicle: saline with Tween-80
[9] = dose: 12.5 mg/kg/injection, schedule: Q01DX009 (ip), vehicle: Klucel (hydroxypropylcellulose) (HPC)
[10] = dose: 25.0 mg/kg/injection, schedule: Q01DX009 (ip), vehicle: Klucel (hydroxypropylcellulose) (HPC)
[11] = dose: 100.0 mg/kg/injection, schedule: Q01DX009 (ip), vehicle: saline
[12] = dose: 50.0 mg/kg/injection, schedule: Q01DX009 (ip), vehicle: saline
[13] = dose: 200.0 mg/kg/injection, schedule: Q01DX009 (ip), vehicle: saline
[14] = dose: 25.0 mg/kg/injection, schedule: Q01DX009 (ip), vehicle: saline
[15] = dose: 400.0 mg/kg/injection, schedule: Q01DX009 (ip), vehicle: saline

CCCCCCCCCCCCCCCCC(C(=O)O)C(O)(CC(=O)O)C(=O)O (stereo not given)
T/C (dose: 8.75 mg/kg/injection, schedule: Q01DX009 (ip), vehicle: Klucel (hydroxypropylcellulose) (HPC)): 95 % of control
T/C (dose: 17.5 mg/kg/injection, schedule: Q01DX009 (ip), vehicle: Klucel (hydroxypropylcellulose) (HPC)): 91 % of control
T/C (dose: 35.0 mg/kg/injection, schedule: Q01DX009 (ip), vehicle: Klucel (hydroxypropylcellulose) (HPC)): 100 % of control
T/C (dose: 70.0 mg/kg/injection, schedule: Q01DX009 (ip), vehicle: Klucel (hydroxypropylcellulose) (HPC)): 93 % of control

O=CC(NC(=O)N(CCF)N=O)C(O)C(O)C(O)CO (stereo not given)
T/C (dose: 30.0 mg/kg/injection, schedule: Q01DX001 (ip), vehicle: saline): 169 % of control
T/C (dose: 60.0 mg/kg/injection, schedule: Q01DX001 (ip), vehicle: saline): 210 % of control
T/C (dose: 120.0 mg/kg/injection, schedule: Q01DX001 (ip), vehicle: saline): 204 % of control

CC[C@H](CC[C@@H](C)C1CC[C@H]2[C@@H]3CC=C4C[C@@H](OP(=O)(N5CC5)N5CC5)CC[C@]4(C)[C@H]3CC[C@]12C)C(C)C (stereo not given in full)
T/C [1]: 95 % of control and 99 % of control
T/C [2]: 110 % of control and 101 % of control
T/C [3]: 90 % of control and 97 % of control
T/C [4]: 91 % of control and 94 % of control
T/C [5]: 93 % of control and 95 % of control

CCCCCCCCCCCCCCC/C([O-])=N/[N+](C)(C)CC(C)O (stereo not given)
T/C (dose: 25.0 mg/kg/injection, schedule: Q01DX001 (ip), vehicle: saline with Tween-80): 105 % of control
T/C (dose: 50.0 mg/kg/injection, schedule: Q01DX001 (ip), vehicle: saline with Tween-80): 96 % of control
T/C (dose: 50.0 mg/kg/injection, schedule: Q01DX001 (ip), vehicle: saline): 105 % of control
T/C (dose: 100.0 mg/kg/injection, schedule: Q01DX001 (ip), vehicle: saline with Tween-80): 97 % of control
T/C (dose: 200.0 mg/kg/injection, schedule: Q01DX001 (ip), vehicle: saline with Tween-80): 104 % of control
T/C (dose: 200.0 mg/kg/injection, schedule: Q01DX001 (ip), vehicle: saline): 86 % of control
T/C (dose: 400.0 mg/kg/injection, schedule: Q01DX001 (ip), vehicle: saline with Tween-80): 100 % of control

O=c1s[se]c2ccccc12
T/C (dose: 1.56 mg/kg/injection, schedule: Q01DX009 (ip), vehicle: Klucel (hydroxypropylcellulose) (HPC)): 94 % of control
T/C (dose: 1.56 mg/kg/injection, schedule: Q01DX009 (ip), vehicle: saline with Tween-80): 104 % of control
T/C [6]: 108 % of control
T/C (dose: 3.12 mg/kg/injection, schedule: Q01DX009 (ip), vehicle: saline with Tween-80): 114 % of control
T/C [7]: 97 % of control
T/C [8]: 87 % of control
T/C [9]: 98 % of control
T/C [1]: 103 % of control
T/C [10]: 94 % of control
T/C [2]: 105 % of control
T/C [3]: 92 % of control

COc1oc(C2C/C(=C/C(C)=C/C(C)=C/C(C)=C/c3ccc([N+](=O)[O-])cc3)CO2)c(C)c(=O)c1C (stereo not given)
T/C (dose: 0.25 mg/kg/injection, schedule: Q01DX009 (ip), vehicle: saline with Tween-80): 96 % of control
T/C (dose: 0.5 mg/kg/injection, schedule: Q01DX009 (ip), vehicle: saline with Tween-80): 98 % of control
T/C (dose: 1.0 mg/kg/injection, schedule: Q01DX009 (ip), vehicle: saline with Tween-80): 99 % of control
T/C (dose: 2.0 mg/kg/injection, schedule: Q01DX009 (ip), vehicle: saline with Tween-80): 103 % of control

COc1cc(C2c3cc4c(cc3C(O)C(CO)C2CO)OCO4)cc(OC)c1OC (stereo not given)
T/C [1]: 111 % of control and 113 % of control
T/C [2]: 113 % of control

CCOC(=O)c1ccc(NN=NCCF)cc1
T/C (dose: 3.0 mg/kg/injection, schedule: Q01DX009 (ip), vehicle: distilled water + Tween-80): 123 % of control and 102 % of control
T/C (dose: 3.12 mg/kg/injection, schedule: Q01DX009 (ip), vehicle: distilled water + Tween-80): 123 % of control
T/C (dose: 6.0 mg/kg/injection, schedule: Q01DX009 (ip), vehicle: distilled water + Tween-80): 112 % of control and 98 % of control
T/C (dose: 12.0 mg/kg/injection, schedule: Q01DX009 (ip), vehicle: distilled water + Tween-80): 87 % of control and 103 % of control
T/C (dose: 12.5 mg/kg/injection, schedule: Q01DX009 (ip), vehicle: distilled water + Tween-80): 155 % of control
T/C (dose: 24.0 mg/kg/injection, schedule: Q01DX009 (ip), vehicle: distilled water + Tween-80): 108 % of control and 101 % of control
T/C (dose: 25.0 mg/kg/injection, schedule: Q01DX009 (ip), vehicle: distilled water + Tween-80): 198 % of control
T/C (dose: 48.0 mg/kg/injection, schedule: Q01DX009 (ip), vehicle: distilled water + Tween-80): 96 % of control and 102 % of control

N#CCCCCCCCCCCC(=O)O
T/C [4]: 93 % of control
T/C [5]: 96 % of control
T/C (dose: 400.0 mg/kg/injection, schedule: Q01DX009 (ip), vehicle: saline with Tween-80): 99 % of control

CCC(/C=C/C1OC(=O)C=CC1C)=C\C(C)C/C=C/C(C)=C/C(C)C(=O)C(C)C(O)C(C)C/C(C)=C/C(=O)O (stereo not given)
T/C (dose: 6.25 micrograms/kg/injection, schedule: Q01DX009 (sc), vehicle: other): 105 % of control
T/C (dose: 12.5 micrograms/kg/injection, schedule: Q01DX009 (ip), vehicle: other): 159 % of control
T/C (dose: 12.5 micrograms/kg/injection, schedule: Q01DX009 (ip), vehicle: saline + alcohol): 156 % of control and 198 % of control
T/C (dose: 12.5 micrograms/kg/injection, schedule: Q01DX009 (sc), vehicle: other): 102 % of control
T/C (dose: 25.0 micrograms/kg/injection, schedule: Q01DX009 (ip), vehicle: saline + alcohol): 165 % of control
T/C (dose: 25.0 micrograms/kg/injection, schedule: Q01DX009 (sc), vehicle: other): 115 % of control

Cc1ccc2c(c1)C1(C)OC(C=CC1=O)O2 (stereo not given)
T/C [6]: 104 % of control
T/C [7]: 115 % of control
T/C [9]: 104 % of control
T/C [10]: 112 % of control and 105 % of control

CCNC(=O)[B-][N+](C)(C)C
T/C [9]: 93 % of control
T/C [10]: 95 % of control

O=C(O)C1CCCN1C(=O)OCC1c2ccccc2-c2ccccc21 (stereo not given)
T/C (dose: 100.0 mg/kg/injection, schedule: Q01DX009 (ip), vehicle: Klucel (hydroxypropylcellulose) (HPC)): 107 % of control
T/C (dose: 200.0 mg/kg/injection, schedule: Q01DX009 (ip), vehicle: Klucel (hydroxypropylcellulose) (HPC)): 104 % of control

C/C(=N\NC(N)=O)c1cccc(/C(C)=N/NC(N)=O)n1
T/C [8]: 93 % of control
T/C [1]: 96 % of control
T/C [2]: 87 % of control
T/C [3]: 90 % of control

NC(CCCNc1cccc(O)c1)C(=O)O (stereo not given)
T/C (dose: 75.0 mg/kg/injection, schedule: Q01DX009 (ip), vehicle: saline): 104 % of control
T/C [11]: 87 % of control

CC1(c2ccc(Cl)cc2)OC(=O)C(=Cc2ccc([N+](=O)[O-])s2)C(=O)O1 (stereo not given)
T/C [8]: 89 % of control
T/C [1]: 86 % of control
T/C [2]: 90 % of control
T/C [3]: 89 % of control

CCCC[C@H]1C(=O)O[C@H](C)[C@H](NC(=O)c2cccc(NC=O)c2O)C(=O)O[C@@H](C)[C@@H]1OC(=O)CC(C)C
T/C (dose: 0.12 mg/kg/injection, schedule: Q01DX009 (ip), vehicle: Klucel (hydroxypropylcellulose) (HPC)): 96 % of control
T/C (dose: 0.25 mg/kg/injection, schedule: Q01DX009 (ip), vehicle: Klucel (hydroxypropylcellulose) (HPC)): 96 % of control
T/C (dose: 0.5 mg/kg/injection, schedule: Q01DX009 (ip), vehicle: Klucel (hydroxypropylcellulose) (HPC)): 91 % of control and 98 % of control

Cc1nnc(SCC2=C(C(=O)O)N3C(=O)C(NC(=O)Cn4cnnn4)C3SC2)s1 (stereo not given)
T/C [12]: 91 % of control
T/C [11]: 93 % of control
T/C [13]: 95 % of control

COCCOC(=O)Cc1ccc(OC)c(OC)c1
T/C (dose: 12.5 mg/kg/injection, schedule: Q01DX009 (ip), vehicle: saline): 108 % of control
T/C [14]: 98 % of control
T/C [12]: 104 % of control
T/C [15]: 87 % of control

CSCCC(N)C(=O)O (stereo not given)
T/C [14]: 106 % of control
T/C [12]: 94 % of control
T/C [11]: 100 % of control
T/C [13]: 113 % of control
T/C [15]: 99 % of control

CN(C)P(=O)(Oc1ccccc1)N(C)C
T/C [1]: 114 % of control and 98 % of control
T/C [2]: 100 % of control and 101 % of control
T/C [3]: 98 % of control and 99 % of control
T/C [4]: 110 % of control and 99 % of control
T/C [5]: 101 % of control and 103 % of control

Cc1cc2nc3c(=O)[nH]c(=O)nc-3n(CC(O)C(O)C(O)C(O)CO)c2cc1C (stereo not given)
T/C (dose: 25.0 mg/kg/injection, schedule: Q01DX009 (ip), vehicle: suspension in saline): 104 % of control
T/C (dose: 50.0 mg/kg/injection, schedule: Q01DX009 (ip), vehicle: suspension in saline): 111 % of control
T/C (dose: 100.0 mg/kg/injection, schedule: Q01DX009 (ip), vehicle: suspension in saline): 102 % of control
T/C (dose: 200.0 mg/kg/injection, schedule: Q01DX009 (ip), vehicle: suspension in saline): 93 % of control
